Data from US5086069A, “Anti-thrombotic peptide and pseudopeptide derivatives” (Rorer Pharmaceutical Corporation, priority 1990, dated 1992).
Where two headings read alike, the source gives them in different places.

Tests used:
Human Platelets = assay: Inhibition of Fibrinogen-Mediated Platelet Aggregation; assay type: cell-based; conditions: thrombin-activated human platelets; for inhibition at 25 µM / Inhibition of Fibrinogen Mediated Platelet Aggregation % inhibition at 25 μM: 25 μM compound; for IC50: human fibrinogen added, rate of aggregation
Experimental: II. Inhibition of Fibrinogen--Mediated Platelet Aggregation, which is essentially based on the method described in Blood, Vol. 66, No. 4, Oct. 1985, pp. 846-952, and is as follows.
Human Platelets were isolated from freshly drawn whole blood and were suspended in 0.14 mol/L NaCl, 2.7 mmol/L […], 12 mmol/L NaHCO3, 0.42 mmol/L Na2 HPO4, 0.55 mmol/L glucose, and 5 mmol/L Hepes, pH 7.35 at 2×10^8 platelets/ml. The suspension was incubated at 37° C. An aliquot of 0.4 ml of platelet suspension was activated by human thrombin at a final concentration of 2 μg/ml of thrombin for one minute. After one minute the reaction was stopped by a thrombin inhibitor. Serial dilution of the compound being tested was then added to the activated platelet, the reaction was allowed to proceed for one minute, followed by the addition of human fibrinogen at a final concentration of […] of fibrinogen. Platelet aggregation was then recorded by an aggregometer. Rate of aggregation was used to calculate IC50.

[1] = molecular target: T1, fibrinogen binding to thrombin-stimulated platelets (GPIIb/IIIa fibrinogen receptor) (Homo sapiens, UniProt P05106+P08514); assay: Inhibition of Radiolabeled (125I) Fibrinogen Binding Assay; conditions: read-out: Inhibition of 125I-Fibrinogen (binding to) Platelet IC50
T1 construct: endogenous in cells; host or cells: washed platelets stimulated with human alpha-thrombin
T1 sequence (P08514 32-887 limits assumed): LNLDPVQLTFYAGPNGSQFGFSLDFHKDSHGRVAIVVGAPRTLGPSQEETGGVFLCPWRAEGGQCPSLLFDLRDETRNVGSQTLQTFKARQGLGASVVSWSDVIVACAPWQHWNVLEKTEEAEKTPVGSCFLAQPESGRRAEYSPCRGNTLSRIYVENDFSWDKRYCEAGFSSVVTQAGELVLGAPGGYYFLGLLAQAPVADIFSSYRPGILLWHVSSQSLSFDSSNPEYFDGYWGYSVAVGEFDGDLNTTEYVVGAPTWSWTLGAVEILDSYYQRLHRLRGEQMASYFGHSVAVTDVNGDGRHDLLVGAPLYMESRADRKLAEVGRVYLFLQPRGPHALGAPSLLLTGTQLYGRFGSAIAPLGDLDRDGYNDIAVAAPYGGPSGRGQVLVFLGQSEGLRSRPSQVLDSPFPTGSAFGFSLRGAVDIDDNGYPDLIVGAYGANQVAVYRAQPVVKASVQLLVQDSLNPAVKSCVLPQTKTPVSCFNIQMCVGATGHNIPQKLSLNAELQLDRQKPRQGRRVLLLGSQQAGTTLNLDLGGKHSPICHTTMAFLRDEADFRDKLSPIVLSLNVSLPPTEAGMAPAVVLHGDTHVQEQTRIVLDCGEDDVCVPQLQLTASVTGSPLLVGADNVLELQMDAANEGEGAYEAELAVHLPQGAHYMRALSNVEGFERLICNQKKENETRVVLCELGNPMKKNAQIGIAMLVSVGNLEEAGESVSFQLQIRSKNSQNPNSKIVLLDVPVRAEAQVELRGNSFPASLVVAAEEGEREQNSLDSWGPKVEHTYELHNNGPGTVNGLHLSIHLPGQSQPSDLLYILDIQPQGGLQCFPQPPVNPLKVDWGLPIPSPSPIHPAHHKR
T1 sequence (P08514 891-1039 limits assumed): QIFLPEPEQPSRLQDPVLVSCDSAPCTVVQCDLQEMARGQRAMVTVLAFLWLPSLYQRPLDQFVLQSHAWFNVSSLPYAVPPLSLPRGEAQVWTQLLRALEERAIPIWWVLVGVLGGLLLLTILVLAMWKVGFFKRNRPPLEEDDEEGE
T1 sequence (P05106 27-788): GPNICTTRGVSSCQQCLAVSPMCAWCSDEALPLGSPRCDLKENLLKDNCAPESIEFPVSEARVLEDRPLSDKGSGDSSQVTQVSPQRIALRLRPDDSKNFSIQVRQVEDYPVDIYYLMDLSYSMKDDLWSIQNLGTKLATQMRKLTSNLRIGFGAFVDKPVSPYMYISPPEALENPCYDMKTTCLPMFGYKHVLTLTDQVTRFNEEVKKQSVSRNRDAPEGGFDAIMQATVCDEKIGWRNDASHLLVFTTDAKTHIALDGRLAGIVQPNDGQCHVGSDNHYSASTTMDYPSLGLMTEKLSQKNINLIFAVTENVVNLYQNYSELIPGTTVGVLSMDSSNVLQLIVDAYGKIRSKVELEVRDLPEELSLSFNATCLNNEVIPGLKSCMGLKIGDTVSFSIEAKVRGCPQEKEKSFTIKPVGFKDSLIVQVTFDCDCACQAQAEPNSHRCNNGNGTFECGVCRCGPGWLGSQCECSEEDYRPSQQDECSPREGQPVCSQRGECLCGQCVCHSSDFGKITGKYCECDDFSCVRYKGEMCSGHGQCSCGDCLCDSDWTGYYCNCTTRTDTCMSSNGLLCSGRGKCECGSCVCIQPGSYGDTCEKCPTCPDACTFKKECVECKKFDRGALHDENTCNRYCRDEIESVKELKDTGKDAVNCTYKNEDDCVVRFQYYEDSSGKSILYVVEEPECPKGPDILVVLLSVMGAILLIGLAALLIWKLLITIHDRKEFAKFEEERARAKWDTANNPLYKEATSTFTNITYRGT
Experimental: I. Inhibition of Radiolabeled (^125 I) Fibrinogen Binding Assay, which is essentially based on the method described in Proc. Natl. Acad. Sci. USA Vol. 83, pp. 5708-5712, Aug. 1986, and is as follows.
Platelets are washed free of plasma constituents by the albumin density-gradient technique. In each experimental mixture platelets in modified Tyrode's buffer are stimulated with human α-thrombin at 22°-25° C. for 10 minutes (3.125×10" platelets per liter and thrombin at […]). Hirudin is then added at a 25-fold excess for 5 minutes before addition of the radiolabeled ligand and any competing ligand. After these additions, the final platelet count in the mixture is 1×10"/liter. After incubation for an additional 30 minutes at 22°-25° C., bound and free ligand are separated by centrifuging 50 μl of the mixture through 300 μl of 20% sucrose at 12,000 xg for 4 minutes. The platelet pellet is then separated from the rest of the mixture to determine platelet-bound radioactivity. Nonspecific binding is measured in mixtures containing an excess of unlabeled ligand. When binding curves are analyzed by Scatchard analysis, nonspecific binding is derived as a fitted parameter from the binding isotherm by means of a computerized program. To determine the concentration of each inhibitory compound necessary to inhibit 50% of fibrinogen binding to thrombin-stimulated platelets (IC50), each compound is tested at 0.176 μgmol/liter (60 μg/ml). The IC50 is derived by plotting residual fibrinogen binding against the logarithm of the sample compound's concentration.

[2] = no inhibition at concentrations of 50 μM or lower
[3] = thrombin-stimulated washed platelets, 22-25° C.

| Compound | inhibition at 25 µM (Human Platelets; Platelet) [%] | IC50 [1, 2] [µM] | IC50 (Human Platelets; Platelet) [µM] | IC50 [1, 3] [µM] | Inhibition of Fibrinogen Mediated Platelet Aggregation % inhibition at 25 μM (Human Platelets) [%] | IC50 (Human Platelets) [µM] |
| --- | --- | --- | --- | --- | --- | --- |
| CC(C)[C@H](NC(=O)[C@H](CC(=O)O)NC(=O)c1cccc(CCCNC(=N)N)c1)C(=O)O [3-(3-Guanidinopropyl)benzoyl-L-aspartyl-L-valine] | 52 | ≥ 50 |  |  |  |  |
| CC(C)[C@H](NC(=O)[C@H](CC(=O)O)NC(=O)CCc1ccc(NC(=N)N)cc1)C(=O)O [3-(4-guanidinophenyl)propanoyl-L-aspartyl-L-valine] | 65 |  | 14 | 4.5 |  |  |
| CC(C)[C@H](NC(=O)[C@H](CC(=O)O)NC(=O)c1cccc(NC(=N)N)c1)C(=O)O [3-Guanidinobenzoyl-L-aspartyl-L-valine, N-(3-guanidinobenzoyl)-L-aspartyl-L-valine] | 6.3 | ≥ 50 |  |  |  |  |
| CC(C)[C@H](NC(=O)[C@H](CC(=O)O)NC(=O)Cc1cccc(CNC(=N)N)c1)C(=O)O [3-Guanidinomethylphenylacetoyl-L-aspartyl-L-valine] | 15.2 |  |  |  |  |  |
| CC(C)[C@H](NC(=O)[C@H](CC(=O)O)NC(=O)c1ccc(CCNC(=N)N)cc1)C(=O)O [4-(2-quanidinoethyl)benzoyl]-L-aspartyl-L-valine] |  |  |  | 10.9 | 85.0 | 7.7 |
| CC(C)[C@H](NC(=O)[C@H](CC(=O)O)NC(=O)c1ccc(CCCNC(=N)N)cc1)C(=O)O [4-(3-Guanidinopropyl)benzoyl-L-aspartyl-L-valine] | 83.3 |  | 7.6 |  |  |  |
| CC(C)[C@H](NC(=O)[C@H](CC(=O)O)NC(=O)C=Cc1ccc(NC(=N)N)cc1)C(=O)O [4-Guanidino cinnamoyl-L-aspartyl-L-valine] | 25 |  | 2.8 | 0.25 |  |  |
| CC(C)[C@H](NC(=O)[C@H](CC(=O)O)NC(=O)c1ccc(NC(=N)N)cc1)C(=O)O [4-Guanidinobenzoyl-L-aspartyl-L-valine, N-(4-quanidinobenzoyl)-L-aspartyl-L-valine] |  |  |  |  | 33.0 |  |
| CC(C)[C@H](NC(=O)[C@H](CC(=O)O)NC(=O)Cc1ccc(CNC(=N)N)cc1)C(=O)O [4-Guanidinomethyl phenylacetoyl-L-aspartyl-L-valine] | 42 | ≥ 50 |  |  |  |  |
| CC(C)[C@H](NC(=O)[C@H](CC(=O)O)NC(=O)c1cccc(CNC(=N)N)c1)C(=O)O [N-(3-guanidinomethylbenzoyl)-L-aspartyl-L-valine] | 53 | ≥ 50 | 30.2 |  |  |  |
| CC(C)[C@H](NC(=O)[C@H](CC(=O)O)NC(=O)c1ccc(CNC(=N)N)cc1)C(=O)O [N-(4-guanidinomethylbenzoyl)-L-aspartyl-L-valine] | 16 |  |  | 22 |  |  |
| CC(C)[C@H](NC(=O)[C@H](CC(=O)O)NC(=O)Cc1ccc(NC(=N)N)cc1)C(=O)O [N-(4-guanidinophenylacetoyl)-L-aspartyl-L-valine] | 43 |  |  | 20 |  |  |
| CC(C)[C@H](NC(=O)[C@H](CC(=O)O)NC(=O)c1cccc(CCNC(=N)N)c1)C(=O)O [N-[3-(2-guanidinoethyl)benzoyl]-L-aspartyl-L-valine] | 37 |  | 33.1 | 115 |  |  |
